Experimental data taken from PubChem BioAssay AID1918994 (Molecular Pharmacology Branch, DTP, NCI, 2023).
Where “and” joins values, the source holds several entries; their conditions need not be identical. Equal entries are not always repeated.

Test system: 292921-168-R-J2-PDC complex spheroid growth
Experiment: Anticancer human tumor 292921-168-R-J2-PDC patient-derived pancreatic carcinoma cell line growth inhibition [AhR]
Conditions: for viability, T/C: stronger effect = lower value
Method in brief: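 Agents were dosed in half-log steps down from roughly clinical Cmax, or from 10 microM where Cmax was unknown, alone and with AhR antagonists. Read-out: percent test/control growth of tumor spheroids containing HUVEC and MSC stromal cells.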

[1] = curve of first compound, second compound 0.1 µM
[2] = curve of first compound, second compound 0.316 µM
[3] = curve of first compound, second compound 1 µM
[4] = curve of first compound, second compound 3.16 µM
[5] = curve of first compound, second compound 10 µM
[6] = second compound 0.1 µM, first compound 0.0316 µM
[7] = second compound 0.1 µM, first compound 0.1 µM
[8] = second compound 0.1 µM, first compound 0.316 µM
[9] = second compound 0.1 µM, first compound 1 µM
[10] = second compound 0.1 µM, first compound 3.16 µM
[11] = second compound 0.1 µM, first compound 10 µM
[12] = second compound 0.316 µM, first compound 0.0316 µM
[13] = second compound 0.316 µM, first compound 0.1 µM
[14] = second compound 0.316 µM, first compound 0.316 µM
[15] = second compound 0.316 µM, first compound 1 µM
[16] = second compound 0.316 µM, first compound 3.16 µM
[17] = second compound 0.316 µM, first compound 10 µM
[18] = second compound 1 µM, first compound 0.0316 µM
[19] = second compound 1 µM, first compound 0.1 µM
[20] = second compound 1 µM, first compound 0.316 µM
[21] = second compound 1 µM, first compound 1 µM
[22] = second compound 1 µM, first compound 3.16 µM
[23] = second compound 1 µM, first compound 10 µM
[24] = second compound 3.16 µM, first compound 0.0316 µM
[25] = second compound 3.16 µM, first compound 0.1 µM
[26] = second compound 3.16 µM, first compound 0.316 µM
[27] = second compound 3.16 µM, first compound 1 µM
[28] = second compound 3.16 µM, first compound 3.16 µM
[29] = second compound 3.16 µM, first compound 10 µM
[30] = second compound 10 µM, first compound 0.0316 µM
[31] = second compound 10 µM, first compound 0.1 µM
[32] = second compound 10 µM, first compound 0.316 µM
[33] = second compound 10 µM, first compound 1 µM
[34] = second compound 10 µM, first compound 3.16 µM
[35] = second compound 10 µM, first compound 10 µM
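Also: spheroids exposed to compounds for seven days after three days of growth.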

Compound	IC50 [1] [nM]	IC50 [2] [nM]	IC50 [3] [nM]	IC50 [4] [nM]	IC50 [5] [nM]	viability, T/C [6] [%]	viability, T/C [7] [%]	viability, T/C [8] [%]	viability, T/C [9] [%]	viability, T/C [12] [%]	viability, T/C [13] [%]	viability, T/C [14] [%]	viability, T/C [15] [%]	viability, T/C [18] [%]	viability, T/C [19] [%]	viability, T/C [20] [%]	viability, T/C [21] [%]	viability, T/C [24] [%]	viability, T/C [25] [%]	viability, T/C [26] [%]	also measured
Nc1ccn(C2OC(CO)C(O)C2(F)F)c(=O)n1 (centres undefined) + Cc1ccccc1N=Nc1ccc(NC(=O)c2ccnn2C)c(C)c1	< 31.6	< 31.6	< 31.6	< 31.6	< 31.6	8.08	7.37	8.63	7.79	8.99	7.65	8.65	8.07	8.29	8.55	9.53	8.8	8.95	7.07	7.3	viability, T/C [10]: 8.32%; viability, T/C [11]: 6.76%; viability, T/C [16]: 8.01%; viability, T/C [17]: 7.23%; viability, T/C [22]: 11.7%; viability, T/C [23]: 7.88%; viability, T/C [27]: 10.1%; viability, T/C [28]: 8.53%; viability, T/C [29]: 5.4%; viability, T/C [30]: 8.79%; viability, T/C [31]: 9.42%; viability, T/C [32]: 7.46%; viability, T/C [33]: 10.9%; viability, T/C [34]: 9.28%; viability, T/C [35]: 6.09%
COc1ccc([C@@H](O)c2cc(-c3ncnc4cc(N5CCOCC5)ccc34)c(F)cc2Cl)nn1																					viability, T/C (compound 0.0316 µM): 92.7% and 96.3% and 98.8%; viability, T/C (compound 0.1 µM): 99.2% and 95.5% and 101%; viability, T/C (compound 0.316 µM): 88% and 86.4% and 84.7%; viability, T/C (compound 1 µM): 64.6% and 70.2% and 62.2%; viability, T/C (compound 3.16 µM): 42.2% and 44.8% and 43.1%; viability, T/C (compound 10 µM): 27.6% and 24.4% and 25.5%; IC50 (curve of compound): 2060 nM and 2490 nM and 2000 nM
Cn1ncnc1C1c2n[nH]c(=O)c3cc(F)cc(c23)NC1c1ccc(F)cc1 (centres undefined)																					viability, T/C (compound 0.000316 µM): 101% and 103% and 106%; viability, T/C (compound 0.001 µM): 103% and 111% and 95.4%; viability, T/C (compound 0.00316 µM): 96.3% and 91.7% and 97.4%; viability, T/C (compound 0.01 µM): 96.2% and 96.3% and 97.7%; viability, T/C (compound 0.0316 µM): 88% and 97.5% and 90.3%; viability, T/C (compound 0.1 µM): 91.5% and 80.2% and 86%; IC50 (curve of compound): > 100 nM
CC(C)c1c(-c2ccccc2)nc2c(C#N)c[nH]n2c1=O + CC(CO)NC(=O)c1cc(-c2ccc(Cl)cc2)nn(-c2cnn(C)c2)c1=O	> 10000	> 10000	> 10000	> 10000	> 10000	104	105	104	105	103	102	99.6	96	109	102	104	97.1	86.8	91.9	94.1	viability, T/C [10]: 109%; viability, T/C [11]: 101%; viability, T/C [16]: 101%; viability, T/C [17]: 89.5%; viability, T/C [22]: 94.9%; viability, T/C [23]: 99.6%; viability, T/C [27]: 89.8%; viability, T/C [28]: 80.8%; viability, T/C [29]: 84.2%; viability, T/C [30]: 69.7%; viability, T/C [31]: 67.3%; viability, T/C [32]: 71.2%; viability, T/C [33]: 63.8%; viability, T/C [34]: 62.6%; viability, T/C [35]: 68.5%
COc1ccc([C@@H](O)c2cc(-c3ncnc4cc(N5CCOCC5)ccc34)c(F)cc2Cl)nn1 + CC(CO)NC(=O)c1cc(-c2ccc(Cl)cc2)nn(-c2cnn(C)c2)c1=O	1810	1820	1910	1320	1060	94.5	97.8	86.6	59.1	101	95.1	87	60.5	102	98.9	78.4	61.4	85.8	82.6	78.6	viability, T/C [10]: 41.9%; viability, T/C [11]: 25.1%; viability, T/C [16]: 39.9%; viability, T/C [17]: 24.7%; viability, T/C [22]: 42.2%; viability, T/C [23]: 28.1%; viability, T/C [27]: 52.9%; viability, T/C [28]: 36%; viability, T/C [29]: 24.3%; viability, T/C [30]: 68%; viability, T/C [31]: 77.1%; viability, T/C [32]: 68.9%; viability, T/C [33]: 49.9%; viability, T/C [34]: 31.9%; viability, T/C [35]: 23.2%
Nc1ncn(C2CC(O)C(CO)O2)c(=O)n1 (centres undefined) + Cc1ccccc1N=Nc1ccc(NC(=O)c2ccnn2C)c(C)c1	> 1000	> 1000	> 1000	> 1000	> 1000	101	86	73.5	72.9	87	76.5	76	78.6	84.2	79.6	77.2	72.4	66.3	72.2	63	viability, T/C (second compound 0.1 µM, first compound 0.00316 µM): 90.2%; viability, T/C (second compound 0.1 µM, first compound 0.01 µM): 94.2%; viability, T/C (second compound 0.316 µM, first compound 0.00316 µM): 96.9%; viability, T/C (second compound 0.316 µM, first compound 0.01 µM): 86.9%; viability, T/C (second compound 1 µM, first compound 0.00316 µM): 80.1%; viability, T/C (second compound 1 µM, first compound 0.01 µM): 104%; viability, T/C (second compound 3.16 µM, first compound 0.00316 µM): 80.2%; viability, T/C (second compound 3.16 µM, first compound 0.01 µM): 82.7%; viability, T/C [27]: 55.6%; viability, T/C (second compound 10 µM, first compound 0.00316 µM): 63%; viability, T/C (second compound 10 µM, first compound 0.01 µM): 65.3%; viability, T/C [30]: 58.7%; viability, T/C [31]: 61.6%; viability, T/C [32]: 62.8%; viability, T/C [33]: 45%
